Results from patent US20180230182A1, “HYPERPOLARIZATION OF AMINO ACID RESIDUES FOR PRODUCING HYPERPOLARIZED PEPTIDES” (Cedars-Sinai Medical Center, priority 2017, published 2018).

Experiment: 13C hyperpolarization by Para Hydrogen Induced Polarization (PHIP) with Goldman RF transfer sequence
Format: physicochemical
Details: non-deuterated, natural abundance 13C
Description: Our objective was to test a model system of polarization that can be incorporated into peptide sequence. Dehydroalanine is an unnatural amino acid with a methylene group instead of the normal methyl side chain for alanine. Several publications laid out the framework on synthesizing peptides containing this reactive amino acid side chain double bond. (Okeley N M, Zhu Y, van der Donk W A. Facile Chemoselective Synthesis of Dehydroalanine-Containing Peptides†. Organic Letters. 2000; 2(23):3603-6). The double bond of dehydroalanine is ideally positioned for PHIP to generate a polarized ^13C carboxyl nucleus with the resulting product an alanine amino acid residue. We utilized a purchased chemical equivalent resembling dehydroalanine in a peptide chain with the terminal carboxyl and amine protected by functional groups (FIG. 1). […] The 3JHH scalar coupling (J) constant was kept at 7.47 Hz, the 3JHH value was determined by proton spectroscopy. All measured samples were combined and lyophilized to dryness, then and dissolved in 2.5 mL of diH2O and scanned (^13C spectroscopy) for 17 hours with a repetition time of 50 seconds. […]

With `C=C(NC(C)=O)C(=O)OC` [MAA, methyl 2-acetamidoacrylate] the “polarization reached with the best set of scalar coupling constants” value (13C carboxyl carbon of the alanine product after 3 second para-hydrogenation of 24 mM MAA in deuterium oxide, 1.4 mT PHIP instrument) was 0.1±0.07% and the “maximum polarization from the best sequence” value (approximated from the Boltzmann thermal equilibrium signal, 13C spectroscopy at 9.4T) was ~0.2%.
